Assay results as given in patent US5223526A, “Pyrazole carboxanilide fungicides and use” (Monsanto Company, priority 1992, dated 1993).

Experiments:
succinate dehydrogenase = target: T1, succinate dehydrogenase (Botrytis cinerea, UniProt A0A384J5E4+A0A384J8V8+A0A384JHJ5); experiment: Enzyme inhibition: succinate dehydrogenase activity in Botrytis cinerea mitochondria (DCPIP reduction); format: biochemical; details: concentration required to inhibit the rate of DCPIP reduction by 50%; Botrytis cinerea isolate Nick mitochondria; read-out: I50 (μM conc.)
T1 construct: succinate-DCPIP reductase assay with KCN
How it was run: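 Crude mitochondria from Botrytis cinerea isolate Nick mycelia, prepared by bead-beating and differential centrifugation, started reactions. SDH activity followed as DCPIP reduction at 600 nm in 50 mM K-phosphate pH 7.2 with 1 mM KCN, 45 μM DCPIP, 17 mM succinate, 1% acetone. I50 from semilog inhibition plots, corrected for succinate-free rates.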

Botrytis cinerea [1] = experiment: Eggplant grey mold; format: in vivo; design: scale not given here; details: inoculated 24 h later, rated after 3-4 days; for Disease Control Rating at 20 ppm: eggplant sprayed with 20 ppm; for Disease Control Rating at 100 ppm: eggplant sprayed with 100 ppm; for Disease Control Rating at 500 ppm: eggplant sprayed with 500 ppm
How it was run: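 Protective test: compound formulations (2:3 acetone:water, 0.5% Tween 20; 500, 100 or 20 ppm) sprayed on 14-18-day-old plants, with spore inoculum (4×10^6 spore/mL) applied a day later. Disease control rated on Botrytis lesions after 3-4 days at 23 °C and 100% humidity.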

Botrytis cinerea [2] = experiment: Vine grey mold (grape berries); format: in vivo; details: average of six berries, 7-10 days; for pest or weed control at 50 ppm: grape berries treated with 50 ppm, read-out: % DISEASE CONTROL 50 ppm; for pest or weed control at 200 ppm: grape berries treated with 200 ppm, read-out: % DISEASE CONTROL 200 ppm
How it was run: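 Preventive berry test: compound at 50 or 200 ppm (acetone/water, 0.05% Tween 20) applied one day before inoculation with 10^6 spores/mL Botrytis conidia. After 7-10 days at 20 °C under 12 h light, infected surface area rated; disease control expressed as percent reduction from control mean; repeated-test values averaged.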

Rhizoctonia solani = experiment: Rice sheath blight; format: in vivo; design: scale not given here; details: inoculated two days later, rated after 7 days, average of five plants; for Disease Control Rating at 0.5 mg/mL: foliage and soil sprayed with 0.5 mg/mL; for Disease Control Rating at 0.02 mg/mL: foliage and soil sprayed with 0.02 mg/mL; for Disease Control Rating at 0.1 mg/mL: foliage and soil sprayed with 0.1 mg/mL
How it was run: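 Rice plants 11–15 days old had foliage and soil sprayed with 0.5, 0.1 or 0.02 mg/mL Compound A in water/acetone/Tween 20, then kept in flooded trays. Two days later, rice-grain Rhizoctonia solani inoculum went to plant bases; disease control scored versus untreated after 7 days at 25 °C, high humidity, averaging five plants.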

T1 sequence (A0A384J5E4 1-300): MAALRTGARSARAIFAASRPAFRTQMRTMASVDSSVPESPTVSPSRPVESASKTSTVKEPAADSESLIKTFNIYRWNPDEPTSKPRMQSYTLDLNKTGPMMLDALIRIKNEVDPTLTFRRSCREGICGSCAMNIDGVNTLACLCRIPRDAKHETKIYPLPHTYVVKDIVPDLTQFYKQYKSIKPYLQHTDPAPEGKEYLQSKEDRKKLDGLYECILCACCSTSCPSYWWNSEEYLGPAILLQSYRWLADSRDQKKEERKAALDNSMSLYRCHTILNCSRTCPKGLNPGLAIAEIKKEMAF
T1 sequence (A0A384J8V8 1-189): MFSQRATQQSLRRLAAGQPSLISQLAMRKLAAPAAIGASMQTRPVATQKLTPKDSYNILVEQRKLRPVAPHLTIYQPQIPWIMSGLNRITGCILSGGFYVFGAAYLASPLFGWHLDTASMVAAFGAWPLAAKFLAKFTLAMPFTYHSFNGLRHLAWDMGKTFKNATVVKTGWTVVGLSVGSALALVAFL
T1 sequence (A0A384JHJ5 1-192): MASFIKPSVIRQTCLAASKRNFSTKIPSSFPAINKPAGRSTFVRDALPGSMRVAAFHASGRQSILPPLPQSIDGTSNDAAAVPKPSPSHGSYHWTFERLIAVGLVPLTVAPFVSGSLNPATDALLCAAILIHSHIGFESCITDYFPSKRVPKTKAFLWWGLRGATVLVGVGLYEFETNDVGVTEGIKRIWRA
T1 sequence (A0A384K456 1-647 partner): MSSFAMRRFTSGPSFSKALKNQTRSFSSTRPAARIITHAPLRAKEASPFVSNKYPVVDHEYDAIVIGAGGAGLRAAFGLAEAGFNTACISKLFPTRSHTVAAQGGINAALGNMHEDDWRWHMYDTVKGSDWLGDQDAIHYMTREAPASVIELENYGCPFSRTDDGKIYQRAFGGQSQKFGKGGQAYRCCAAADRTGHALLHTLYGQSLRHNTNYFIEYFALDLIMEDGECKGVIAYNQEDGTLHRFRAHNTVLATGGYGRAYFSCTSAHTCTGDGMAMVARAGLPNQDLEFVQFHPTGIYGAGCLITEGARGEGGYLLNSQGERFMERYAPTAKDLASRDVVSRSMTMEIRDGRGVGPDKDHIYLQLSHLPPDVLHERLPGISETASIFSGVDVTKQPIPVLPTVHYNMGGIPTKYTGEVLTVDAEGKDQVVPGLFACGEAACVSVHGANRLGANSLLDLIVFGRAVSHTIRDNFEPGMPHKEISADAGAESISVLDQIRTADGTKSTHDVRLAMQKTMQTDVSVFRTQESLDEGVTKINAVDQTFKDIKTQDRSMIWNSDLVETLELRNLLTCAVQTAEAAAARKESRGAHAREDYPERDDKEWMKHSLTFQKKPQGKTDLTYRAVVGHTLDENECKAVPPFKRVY

Row | SMILES | IC50 (succinate dehydrogenase) [µM] | Disease Control Rating at 20 ppm (Botrytis cinerea [1]) | Disease Control Rating at 100 ppm (Botrytis cinerea [1]) | Disease Control Rating at 500 ppm (Botrytis cinerea [1]) | pest or weed control at 50 ppm (Botrytis cinerea [2]) [%] | pest or weed control at 200 ppm (Botrytis cinerea [2]) [%] | Disease Control Rating at 0.5 mg/mL (Rhizoctonia solani) | Disease Control Rating at 0.02 mg/mL (Rhizoctonia solani) | Disease Control Rating at 0.1 mg/mL (Rhizoctonia solani)
1 | CC(C)C1CCCC=C1c1ccccc1NC(=O)c1cn(C)nc1C(F)(F)F (stereo not shown) [Example 131, 1H-pyrazole-4-carboxamide, 1-methyl-N-[2-[6-(1-methylethyl)-1-cyclohexen-1-yl]phenyl]-3-(trifluoromethyl)-] | 0.19 | 0 | 0 | 0 | 7 | 0 | 2 |  | 
2 | Cn1cc(C(=O)Nc2ccc(F)cc2C2(C)CCCCC2)c(C(F)(F)F)n1 [Example 98, 1H-pyrazole-4-carboxamide, N-[4-fluoro-2-(1-methylcyclohexyl)-phenyl]-1-methyl-3-(trifluoromethyl)-] | 0.8 |  |  | 0 | 14 | 0 | 0 |  | 
3 | C[C@@H]1CCC[C@H](C)[C@@H]1Oc1ccccc1NC(=O)c1cn(C)nc1C(F)(F)F [Example 74, 1H-pyrazole-4-carboxamide, 1-methyl-N-[2-[(2,6-dimethylcyclohexyl)oxy]phenyl]-3-(trifluoromethyl)-, (lalpha,2alpha,6alpha)-] | 0.09 | 0 | 0 | 1 | 4 | 0 | 0 |  | 
4 | CC1C=C(c2ccccc2NC(=O)c2cn(C)nc2C(F)(F)F)CC1 (stereo not shown) [Example 148, 1H-pyrazole-4-carboxamide, N-[2-(3-methyl-1-cyclopenten-1-yl)phenyl]-1-methyl-3-(trifluoromethyl)-] | 0.027 | 0 | 2 | 2 | 37 | 99 | 3 |  | 
5 | Cn1cc(C(=O)Nc2ccccc2C=C2CCCCCC2)c(C(F)F)n1 [Example 147, 1H-pyrazole-4-carboxamide, N-[2-(cycloheptylidenemethyl)phenyl]-1-methyl-3-(difluoromethyl)-] | 0.02 | 0 | 0 | 0 | 0 | 0 | 2 |  | 
6 | Cn1cc(C(=O)Nc2ccc(F)cc2C2CCCCC2)c(C(F)F)n1 [Example 11, 1H-pyrazole-4-carboxamide, N-(2-cyclohexyl-4-fluorophenyl)-3-(difluoromethyl)-1-methyl-] | 0.0054 | 2 | 2 | 3 | 75 | 92 | 3 | 1 | 3
7 | Cn1cc(C(=O)Nc2ccccc2C=C2CCCCC2)c(C(F)(F)F)n1 [Example 40, 1H-pyrazole-4-carboxamide, N-[2-(cyclohexylidenemethyl)phenyl]-1-methyl-3-(trifluoromethyl)-] | 0.079 | 0 | 0 | 1 | 2 | 3 | 0 |  | 
8 | Cc1ccccc1NC(=O)c1c(C)nn(C)c1C [Compound H, N-(2-methylphenyl)-1,3,5-(trimethyl)-4-pyrazolecarboxamide, reference compound] | 475 |  |  | 0 | 5 | 9 | 0 |  | 
9 | C=C(c1ccccc1NC(=O)c1cn(C)nc1C(F)(F)F)C1CCCC1 [Example 34, 1H-pyrazole-4-carboxamide, N-[2-(1-cyclopentylethenyl)phenyl]-1-methyl-3-(trifluoromethyl)-] | 0.0059 | 0 | 2 | 2 | 44 | 11 | 3 | 2 | 3
10 | Cn1nc(C(F)(F)F)c(C(=O)Nc2ccccc2C2CCCCCC2)c1Cl [Example 89, 1H-pyrazole-4-carboxamide, 5-chloro-N-(2-cycloheptylphenyl)-1-methyl-3-(trifluoromethyl)-] | 0.021 |  |  | 0 | 24 | 13 | 0 |  | 
11 | Cn1cc(C(=S)Nc2ccccc2C2CCCCCC2)c(C(F)(F)F)n1 [Example 78, 1H-pyrazole-4-carbothioamide, N-(2-cycloheptylphenyl)-3-(trifluoromethyl)-1-methyl] | 8.7 | 1 | 1 | 2 | 35 | 35 | 0 |  | 
12 | O=C(Nc1ccccc1C1CCCCC1)c1c[nH]nc1C(F)F [Example 15, 1H-pyrazole-4-carboxamide, N-(2-cyclohexylphenyl)-3-(difluoromethyl)-] | 0.014 | 2 | 3 | 2 | 36 | 89 | 0 |  | 
13 | Cn1cc(C(=O)Nc2ccccc2OCC2CCC2)c(C(F)F)n1 [Example 42, 1H-pyrazole-4-carboxamide, N-[2-(cyclobutylmethoxy)phenyl]-3-(difluoromethyl)-1-methyl-] | 0.2 |  |  | 0 | 0 | 25 | 3 | 2 | 3
14 | Cc1ccc(NC(=O)c2cn(C)nc2C(F)(F)F)c(C2CCCCC2)c1 [Example 29, 1H-pyrazole-4-carboxamide, N-(2-cyclohexyl-4-methylphenyl)-1-methyl-3-(trifluoromethyl)-] | 0.036 |  |  | 0 | 0 | 54 | 0 |  | 
15 | Cn1cc(C(=O)Nc2ccccc2C=C2CCCCCC2)c(C(F)(F)F)n1 [Example 143, 1H-pyrazole-4-carboxamide, N-[2-(cycloheptylidenemethyl)phenyl]-1-methyl-3-(trifluoromethyl)-] | 0.025 | 0 | 0 | 0 | 33 | 36 | 3 |  | 
16 | Cn1cc(C(=O)Nc2ccccc2CC2CCCCC2)c(C(F)F)n1 [Example 129, 1H-pyrazole-4-carboxamide, N-[2-(cyclohexylmethyl)phenyl]-3-(difluoromethyl)-1-methyl-] | 0.11 | 0 | 0 | 0 | 7 | 0 | 3 | 3 | 3
17 | Cc1nn(C)c(C)c1C(=O)Nc1ccccc1C1CCCCC1 [Example 30, 1H-pyrazole-4-carboxamide, N-(2-cyclohexylphenyl)-1,3,5-trimethyl-] | 0.34 | 0 | 2 | 2 | 75 | 59 | 3 | 2 | 3
18 | Cn1cc(C(=O)Nc2ccccc2[C@@H]2C[C@H]3CC[C@@H]2C3)c(C(F)(F)Cl)n1 (relative stereo) [Example 91, 1H-pyrazole-4-carboxamide, N-[2-bicyclo[2.2.1]hept-2-ylphenyl]-3-(chlorodifluoromethyl)-1-methyl-, exo-] | 0.078 |  |  | 0 | 0 | 14 | 0 |  | 
